Literature values, collected in patent US6908630B2, “Combinations of sesquiterpene lactones and ditepene triepoxide lactones for synergistic inhibition of cyclooxygenase-2” (Metaproteomics, LLC, priority 2000, dated 2005).

Details: gastrointestinal disturbance, nausea and vomiting, hypotension, edema

CC(C)[C@]12O[C@H]1[C@@H]1O[C@]13[C@]1(O[C@H]1C[C@H]1C4=C(CC[C@@]13C)C(=O)OC4)[C@@H]2O [Triptolide]
patients showing some type of side effects: Approximately 28%
